Data published in patent publication US5622983A, “N-substituted cycloalkyl and polycycloalkyl α-substituted Trp-Phe- and phenethylamine derivatives” (Warner-Lambert Company, priority 1995, dated 1997).
Read-outs that look alike come from different tables or passages of the source.

Experiments:
[1] = molecular target: T1, Central CCK Receptors (Mus musculus, UniProt P56481); test: Binding to central CCK receptors (tritiated-pentagastrin displacement, cerebral cortical membranes)
T1 sequence (P56481 1-453): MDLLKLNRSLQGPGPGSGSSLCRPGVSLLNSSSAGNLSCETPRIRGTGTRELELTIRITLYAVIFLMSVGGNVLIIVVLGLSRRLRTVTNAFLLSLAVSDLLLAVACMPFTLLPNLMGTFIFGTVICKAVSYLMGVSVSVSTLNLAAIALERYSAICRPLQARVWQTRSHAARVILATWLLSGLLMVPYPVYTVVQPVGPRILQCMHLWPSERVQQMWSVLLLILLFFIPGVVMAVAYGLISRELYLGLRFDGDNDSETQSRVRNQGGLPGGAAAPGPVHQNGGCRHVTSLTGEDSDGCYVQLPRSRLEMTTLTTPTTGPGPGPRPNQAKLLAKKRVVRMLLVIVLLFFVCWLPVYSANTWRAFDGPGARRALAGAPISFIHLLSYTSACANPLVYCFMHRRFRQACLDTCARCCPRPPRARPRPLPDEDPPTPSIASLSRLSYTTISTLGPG

[2] = Palatable Diet Feeding assay; type: in vivo, rat; conditions: dose producing 50% of the maximum effect possible (zero food intake)
Protocol: In the Palatable Diet Feeding assay, adult male Hooded Lister rats weighing between 200-400 g were housed individually and trained to eat a palatable diet. This diet consisted of Nestles sweetened condensed milk, powdered rat food and rat water which when blended together set to a firm consistency. […] The intake of palatable diet was measured by weighing the food container before and after the 30-minute access period (limits of accuracy 0.1 g). Care was taken to collect and correct for any spillage of the diet. Rats had free access to pellet food and water except during the 30-minute test period.
After the training period, dose-response curves were constructed for CCK8 and several representative compounds of the present invention (n=8-10 rats per dose level).

[3] = read-out: Binding to Central CCK Receptors Ki, displacement of 2 nM tritiated-pentagastrin, mouse cerebral cortical membranes

| SMILES | Ki [1, 3] [nM] | Inhibition of Feeding on Rat Palatable Diet Assay I.P. MPE50 [2] [mg/kg] | Ki [1] [nM] |
| --- | --- | --- | --- |
| CC(Cc1c[nH]c2ccccc12)(NC(=O)OC1CCCCC1Cl)C(=O)NC(COC(=O)CCC(=O)O)Cc1ccccc1 (centres unmarked) [Example 4, 2-[[2-[[[2-chlorocyclohexyl)oxy]-carbonyl]amino]-3-(1H-indol-3-yl)-2-methyl-1-oxo-propyl]amino]-3-phenylpropyl butanedioate] | 170 | > 20 | – |
| C[C@](Cc1c[nH]c2ccccc12)(NC(=O)OC1CC2CC3CC(C2)C1C3)C(=O)N[C@H](CO)Cc1ccccc1 (some centres unmarked) [Example 11] | – | – | 54 |
| C[C@](Cc1c[nH]c2ccccc12)(NC(=O)CC12CC3CC(CC(C3)C1)C2)C(=O)N[C@H](CO)Cc1ccccc1 (relative stereo) [Example 5, [R-(R*,S*)]-N-[1-(hydroxymethyl)-2-phenylethyl]-α-methyl-α-[[tricyclo[3.3.1.1^3,7]dec-1-ylacetyl)-amino]-1H-indole-3-propanamide] | 2230 | 33.6 | – |
| CC(Cc1c[nH]c2ccccc12)(NC(=O)OC1CC2CCC1(C)C2(C)C)C(=O)NCCc1ccccc1 (racemic) [Example 8, (±)-Exo-1,7,7-trimethylbicyclo[2.2.1]hept-2-yl-[1-(1H-indol-3-ylmethyl)-1-methyl-2-oxo-2-[(2-phenylethyl)amino]ethyl]-carbamate] | 840 | – | – |
| CC(Cc1c[nH]c2ccccc12)(NS(=O)(=O)CC12CCC(CC1=O)C2(C)C)C(=O)NC(CO)Cc1ccccc1 (stereo not drawn) [Example 18, α-[[[(7,7-dimethyl-2-oxobicyclo[2.2.1]-hept-1-yl)-methyl]sulfonyl]amino]-N-[1-(hydroxymethyl)-2-phenylethyl]-α-methyl-1H-indole-3-propanamide-(Trpcenter R, phenylalanylcenter S)] | 21000 | – | – |
| CC(Cc1c[nH]c2ccccc12)(NC(=O)O[C@@H]1CCCC[C@H]1Cl)C(=O)NCCc1ccccc1 (mixture of isomers) [Example 2, (±)-Trans-2-chlorocyclohexyl [1-(1H-indol-3-ylmethyl)-1-methyl-2-oxo-2-[(2-phenylethyl)amino]ethyl]carbamate] | – | 9.6 | 3150 |
| CC(Cc1c[nH]c2ccccc12)(NC(=O)OC1CC2CCC1(C)C2(C)C)C(=O)NCCc1ccccc1 (racemic) [Example 7, (±)-Endo-1,7,7-trimethylbicyclo[2.2.1]hept-2-yl-[1-(1H-indol-3-ylmethyl)-1-methyl-2-oxo-2-[(2-phenylethyl)amino]ethyl]-carbamate] | 760 | – | – |
| CC(Cc1c[nH]c2ccccc12)(NC(=O)OC12CC3CC(CC(C3)C1)C2)C(=O)NCCc1ccccc1 (racemic) [Example 1, (±)-Tricyclo[3.3.1^3,7]dec-1-yl [1-(1H-indol-3-ylmethyl)-1-methyl-2-oxo-2-[(2-phenylethyl)amino]ethyl]carbamate] | 1230 | – | – |
| CC(Cc1c[nH]c2ccccc12)(NC(=O)O[C@@H]1CCCC[C@H]1Cl)C(=O)NC(CO)Cc1ccccc1 (mixture of isomers) [Example 3, (±)-Trans-2-chlorocyclohexyl [2-[[1-(hydroxymethyl)-2-phenyethyl]amino]-1-(1H-indol-3-ylmethyl)-1-methyl-2-oxoethyl]carbamate. (D-tryptophan residue; L-phenylalanine residue).] | 260 | 30.7 | – |

Now from value to compound, other results behind:

| Ki [1, 3] [nM] | SMILES | Inhibition of Feeding on Rat Palatable Diet Assay I.P. MPE50 [2] [mg/kg] | Ki [1] [nM] |
| --- | --- | --- | --- |
| 7500 | CC(Cc1c[nH]c2ccccc12)(NC(=O)OC1CC2CCC1C2)C(=O)NCCc1ccccc1 (racemic) [Example 9, (±)-Exo-bicyclo[2.2.1]hept-2-yl [1-(1H-indol-3-ylmethyl)-1-methyl-2-oxo-2-[(2-phenylethyl)amino]ethyl]carbamate] | – | – |
| 0.29 | CC1CCCCC1OC(=O)NC(C)(Cc1c[nH]c2ccccc12)C(=O)NCC(NC(=O)C=CC(=O)O)c1ccccc1 (single isomer, unassigned) [Example 41, 2-Butenoic acid, 4-[[2-[[3-(1H-indol-3-yl)-2-methyl-2-[[[(2-methyl-1-cyclohexyl)oxy]carbonyl]amino]-1-oxopropyl]amino]-1-phenylethyl]amino]-4-oxo-, [1R -[1α[R*(R*)], 2β]]-((-)-isomer)] | – | – |
| 10500 | CC(Cc1c[nH]c2ccccc12)(NC(=O)O[C@@H]1CCCC[C@H]1Cl)C(=O)NC(CO)Cc1ccccc1 (mixture of isomers) [Example 14, (±)-trans-2-Chlorocyclohexyl-[2-[[1-(hydroxymethyl)-2-phenylethyl]amino]-1-(1H-indol-3ylmethyl)-1-methyl-2-oxoethyl]carbamate] | 19.5 | – |
| 3.9 | CC1CCCCC1OC(=O)NC(C)(Cc1c[nH]c2ccccc12)C(=O)NCC(NC(=O)CCC(=O)O)c1ccccc1 (single isomer, unassigned) [Example 40, Butanoic acid, 4-[[2-[[3-(1H-indol-3-yl)-2-methyl-2-[[[(2-methyl-1-cyclohexyl)oxy]carbonyl]amino]-1-oxopropyl]amino]-1-phenylethyl]amino]-4-oxo-[1R-[1α[R*(R*)]2β]]-((-)-isomer)] | – | – |
| 4 | CC1CCCCC1OC(=O)NC(C)(Cc1c[nH]c2ccccc12)C(=O)NC(CNC(=O)C=CC(=O)O)Cc1ccccc1 (single isomer, unassigned) [Example 43, 2-Butenoic acid, 4-[[2-[[3-)1H-indol-3-yl)-2-methyl-2-[[[(2-methyl-1-cyclohexyl)oxy]carbonyl]amino]-1-oxopropyl]amino]-3-phenylpropyl]amino]-4-oxo-[IR[1α[R*(S*)], 2β]]-((-)-isomer)] | – | – |
| 0.08 | CC(Cc1c[nH]c2ccccc12)(NC(=O)OC1C2CC3CC(C2)CC1C3)C(=O)NC(CNC(=O)C=CC(=O)O)Cc1ccccc1 (stereo not drawn) [Example 19A, [R-(R*,S*)]-4-[[2-(1H-Indol-3-yl)-2-methyl-1-oxo-2-[[tricyclo[3.3.1.1^3,7]dec-2-yloxylcarbonyl]amino]propyl]-amino]-3-phenylpropyl]amino]-4-oxo-2-butenoic acid] | – | – |
| 63 | CC(Cc1c[nH]c2ccccc12)(NC(=O)OC1C2CC3CC(C2)CC1C3)C(=O)NCC(OC(=O)CCC(=O)O)c1ccccc1 (centres unmarked) [Example 17, 2-[[3-(1H-indol-3-yl)-2-methyl-1-oxo-2-[[(tricyclo-[3.3.1.1.^3,7]dec-2-yloxy)carbonyl]amino]propyl]amino]-1-phenylethyl butanedioate] | 13.1 | – |
| 14 | CC(Cc1c[nH]c2ccccc12)(NC(=O)OC1C2CC3CC(C2)CC1C3)C(=O)NC(CNC(=O)CCC(=O)O)Cc1ccccc1 (stereo not drawn) [Example 19, [R-(R*,S*)]-4-[[2-[[3-(1H-indol-3-yl)-2-methyl-1-oxo-2-[[(tricyclo[3.3.1.1^3,7]dec-2-yloxy)carbonyl]amino]propyl]amino]-3-phenylpropyl]amino]-4-oxobutanoic acid] | – | – |
| 85 | CC(Cc1c[nH]c2ccccc12)(NC(=O)OC1CC2CC3CC(C2)C1C3)C(=O)NC(COC(=O)CCC(=O)O)Cc1ccccc1 (centres unmarked) [Example 12, 2-[3-1H-indol-3-yl)-2-methyl-2-[[[(octahydro-2,5-methano-1H-inden-7-yl)oxy]carbonyl]amino]-1-oxopropyl]-3-phenylpropyl butanedioate] | – | – |
| 5.1 | CC(Cc1c[nH]c2ccccc12)(NC(=O)OC1C2CC3CC(C2)CC1C3)C(=O)NCC(NC(=O)C1CC1C(=O)O)c1ccccc1 (racemic) [Example 32, 2-[[[2-[[3-(1H-indol-3-yl)-2-methyl-1-oxo-2-[[(tricyclo-[3.3.1.1^3,7]dec-2-yloxy)carbonyl]amino]propyl]amino]-1-phenylethyl]amino]carbonyl]cyclopropanecarboxylic acid (cyclopropane ring is trans-(±)othercentersare R)] | – | – |
| 6 | CC(Cc1c[nH]c2ccccc12)(NC(=O)OC1C2CC3CC(C2)CC1C3)C(=O)NCC(NC(=O)CCc1nn[nH]n1)c1ccccc1 (stereo not drawn) [Example 33, Tricyclo[3.3.1.1^3,7]dec-2-yl [R,(R*,S*]-[1-(1H-indol-3-ylmethyl)-1-methyl-2-oxo-2-[[2-[[1-oxo-3-(1H -tetrazol-5-yl)propyl]amino]-2-phenylethyl]-amino]ethyl]carbamic acid ester] | – | – |
| 8800 | CC(Cc1c[nH]c2ccccc12)(NC(=O)OC1CC2CCC1C2)C(=O)NCCc1ccccc1 (racemic) [Example 10, (±)-Endo-bicyclo[2.2.1]hept-2-yl [1-(1H-indol-3-ylmethyl)-1-methyl-2-oxo-2-[(2-phenylethyl)amino]ethyl]carbamate] | – | – |
| 26 | CC(Cc1c[nH]c2ccccc12)(NC(=O)OC1C2CC3CC(C2)CC1C3)C(=O)NC(CO)Cc1ccccc1 (stereo not drawn) [Example 15, [R-(R*,S*)]-Tricyclo[3.3,1.1^3,7]dec-2-yl-[2-[[1-(hydroxymethyl)-2-phenylethyl]amino]-1-(1H-indol-3-ylmethyl)-1-methyl-2-oxoethyl]carbamate] | 15.7 | – |
